Data published in patent US9643967B2, “Pyrrolo[3,2-c]pyridine derivatives as TLR inhibitors” (TAKEDA PHARMACEUTICAL COMPANY LIMITED, priority 2013, dated 2017).
Where two headings read alike, the source gives them in different places.

Biological target: T1, mTLR9 (Mus musculus, UniProt Q9EQU3)
T1 construct: Splenocytes isolated from male C57/BL6 mice; from tissue; host or cells: splenocytes from the spleen of male C57BL/6 mice
T1 sequence (Q9EQU3 26-1032): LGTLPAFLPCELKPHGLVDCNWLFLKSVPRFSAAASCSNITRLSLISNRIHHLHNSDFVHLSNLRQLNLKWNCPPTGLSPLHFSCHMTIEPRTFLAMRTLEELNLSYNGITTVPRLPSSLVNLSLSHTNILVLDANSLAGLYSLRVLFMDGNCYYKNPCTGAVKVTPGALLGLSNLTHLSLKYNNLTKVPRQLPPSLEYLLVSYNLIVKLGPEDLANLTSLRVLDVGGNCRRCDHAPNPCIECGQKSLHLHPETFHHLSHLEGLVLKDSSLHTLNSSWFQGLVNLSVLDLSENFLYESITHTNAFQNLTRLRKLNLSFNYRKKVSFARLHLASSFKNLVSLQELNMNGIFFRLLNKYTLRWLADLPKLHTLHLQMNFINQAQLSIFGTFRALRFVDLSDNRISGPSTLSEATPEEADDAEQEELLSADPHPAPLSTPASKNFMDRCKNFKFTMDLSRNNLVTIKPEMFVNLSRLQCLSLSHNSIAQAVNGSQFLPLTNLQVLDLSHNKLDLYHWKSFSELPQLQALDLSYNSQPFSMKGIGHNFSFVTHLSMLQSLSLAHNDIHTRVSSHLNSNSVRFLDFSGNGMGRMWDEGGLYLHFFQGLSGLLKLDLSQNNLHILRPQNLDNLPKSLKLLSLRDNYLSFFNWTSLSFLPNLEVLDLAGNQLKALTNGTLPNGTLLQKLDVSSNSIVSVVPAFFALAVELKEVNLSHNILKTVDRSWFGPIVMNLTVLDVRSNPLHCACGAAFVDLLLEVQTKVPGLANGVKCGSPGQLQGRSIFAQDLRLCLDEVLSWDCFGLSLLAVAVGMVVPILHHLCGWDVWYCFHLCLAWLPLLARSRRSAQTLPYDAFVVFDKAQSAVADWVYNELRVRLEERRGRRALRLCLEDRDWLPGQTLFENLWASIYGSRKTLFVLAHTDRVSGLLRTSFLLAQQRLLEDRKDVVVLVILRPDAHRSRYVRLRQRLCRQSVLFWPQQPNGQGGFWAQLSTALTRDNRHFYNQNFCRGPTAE
Assay: mTLR9 antagonism (IL-6 and TNF-α release assay) in mouse splenocytes, CpG ODN-2006 stimulated
Type: cell-based
Conditions: 1 μM, mouse splenocytes
From the text: mTLR9 and mTLR7 Antagonism (Cytokine Release Assay) in Mouse Splenocytes
TLR7 ligand R0006 (IDT, 5′-rU*rU*rG*rU*rU*rG*rU*rU*rG*rU*rU*rG*rU*rU*rG*rU*rU*rG*rU*rU-3′ (SEQ ID NO:1)), Liposomal transfection reagent—DOTAP (Roche, Cat. No. 11202375001), TLR9 ligand CpG ODN2006 (Sequence: T*C*G*T*C*G*T*T*T*T*G*T*C*G*T*T*T*T*G*T*C*G*T*T; *=phosphorothioate (SEQ ID NO:2)) DMSO (Sigma, D2650), RPMI Powder (Sigma, R6504), Fetal Bovine Serum (Gibco, 10270), Dulbecco's Phosphate Buffered Saline (Sigma, D1408), 96 well plate (Flat bottom, Costar 3599), ELISA kit for IL-6 (EBioscience, 88-7064-77 and TNFa (EBioscience, 88-7346-88), MACS Buffer (AutoMACS Rinsing Solution (Miltenyl Biotec, 130-091-222)+0.05% BSA), RBC lysis buffer (0.85% NH4Cl), 40 μm cell strainer (BD Falcon, 352340) Method: A. Isolation of Mouse Splenocytes
Mouse spleen was isolated from C57BL6 mouse and stored in 1× chilled PBS buffer until further processed. Spleen was transferred to a sterile petriplate and chopped in to 5-6 pieces in presence of MACS buffer (100 μl) with the help of fresh surgical blade and crushed with flat plunger of a sterile syringe. A uniform suspension was prepared by passing cells through a 40 μm cell strainer. Cells were centrifuged at 450×g for 5 minutes at 4° C., supernatant was discarded and pellet dislodged gently, resuspended in 2 ml of pre-warmed (37° C.) RBC lysis buffer at room temperature with continuous gentle mixing with 1 ml pipette. Lysis buffer was neutralized with 12 ml of chilled MACS buffer and cells were passed through 40 μm cell strainer. Cell suspension was collected in 15 ml MACS buffer and centrifuged at 450×g for 5 minutes at 4° C. Pellet was resuspended in 15 ml MACS buffer and centrifuged at 400×g for 5 minutes. Cells were resuspended in 10 ml of RPMI complete medium and viability was estimated by Trypan blue method.
mTLR9 Antagonism (IL-6 and TNF-α Release Assay):
500 μM stock of CpG ODN-2006 was prepared in sterile, endotoxin-free water. Dilutions of 10× concentrations of NCEs were prepared in incomplete RPMI media, maintaining a final DMSO concentration of 0.3%. NCEs were added in a concentration range of 30 μM to 1 nM in respective wells of assay plate, assay medium containing 0.3% DMSO were added to control wells. 0.2 million splenocytes were added to all the wells and incubated at 37° C. in 5% CO2 incubator for 30 minutes. 1 μg/ml of respective agonist was added to all the wells except those were assigned as negative controls and mixed thoroughly. Incomplete RPMI was added to negative control wells and incubated overnight at 37° C./5% CO2. The plate was centrifuged at 450×g for 5 minutes at room temperature and the supernatant was collected. ELISA was performed as per manufacturer's protocol. S/B Ratio, % Activity and % Inhibition was calculated using MS Excel. IC50 and inhibition curve was generated using Graph Pad Prism.

[1] = TNF-α release, read-out: mTLR9 inhibitory activity (% at 1 μM), TNF-α
[2] = IL-6 release, read-out: mTLR9 inhibitory activity (% at 1 μM), IL-6

SMILES | inhibition at 1 µM [1] [%] | inhibition at 1 µM [2] [%]
CC(C)N1CCC(Oc2ccc(-c3nccc4[nH]c(CN5CCOCC5)cc34)cc2)CC1 [Example A56, 4-[[4-[4-[(1-isopropyl-4-piperidyl)oxy]phenyl]-1H-pyrrolo[3,2-c]pyridin-2-yl]methyl]morpholine] | 71 | –
CN1CCN(c2ccc(-c3nccc4[nH]c(CCCN5CCOCC5)cc34)cc2)CC1 [Example C2, 4-[3-[4-[4-(4-methylpiperazin-1-yl)phenyl]-1H-pyrrolo[3,2-c]pyridin-2-yl]propyl]morpholine] | 100 | –
CC(C)N1CCN(c2ccc(-c3nccc4[nH]c(CN5CC(O)C5)cc34)cc2)CC1 [Example A72, 1-[[4-[4-(4-isopropylpiperazin-1-yl)phenyl]-1H-pyrrolo[3,2-c]pyridin-2-yl]methyl]azetidin-3-ol] | 0 | 72
CC(C)N1CCC(c2ccc(-c3nccc4[nH]c(CN5CCOCC5)cc34)cc2)CC1 [Example A70, 4-[[4-[4-(1-isopropyl-4-piperidyl)phenyl]-1H-pyrrolo[3,2-c]pyridin-2-yl]methyl]morpholine] | 52 | 95
CC(C)N1CCC(n2cc(-c3nccc4[nH]c(CN5CCOCC5)cc34)cn2)CC1 [Example A54, 4-[[4-[1-(1-isopropyl-4-piperidyl)pyrazol-4-yl]-1H-pyrrolo[3,2-c]pyridin-2-yl]methyl]morpholine] | 0 | –
CC(C)N1CCN(c2ccc(-c3nccc4[nH]c(CN5CCC(O)CC5)cc34)cc2)CC1 [Example A12, 1-[[4-[4-(4-isopropylpiperazin-1-yl)phenyl]-1H-pyrrolo[3,2-c]pyridin-2-yl]methyl] piperidin-4-ol] | 52 | 95
CC(C)N1CCN(c2ccc(-c3nccc4[nH]c(CN5CCOCC5)cc34)cc2)CC1 [Example A1, 4-[[4-[4-(4-isopropylpiperazin-1-yl)phenyl]-1H-pyrrolo[3,2-c]pyridin-2-yl]methyl]morpholine] | 94 | 100
CC(C)N1CCN(c2ccc(-c3nc(C4CC4)cc4[nH]c(CN5CCOCC5)cc34)cc2)CC1 [Example A33, 4-[[6-cyclopropyl-4-[4-(4-isopropylpiperazin-1-yl)phenyl]-1H-pyrrolo[3,2-c]pyridin-2-yl]methyl] morpholine] | 85 | –
Cc1nc(-c2ccc(N3CCN(C)CC3)cc2)c2cc(CN3CCOCC3)[nH]c2c1C [Example A37, 4-[[6,7-dimethyl-4-[4-(4-methylpiperazin-1-yl)phenyl]-1H-pyrrolo[3,2-c]pyridin-2-yl]methyl] morpholine] | 100 | –
Cc1cc2[nH]c(CN3CCOCC3)cc2c(-c2ccc(C3CCN(C(C)C)CC3)cc2)n1 [Example A51, 4-[[4-[4-(1-isopropyl-4-piperidyl)phenyl]-6-methyl-1H-pyrrolo[3,2-c]pyridin-2-yl]methyl]morpholine] | 90 | 100
CC(C)N1CC=C(c2ccc(-c3nccc4[nH]c(CN5CCOCC5)cc34)cn2)CC1 [Example A52, 4-[[4-[6-(1-isopropyl-3,6-dihydro-2H-pyridin-4-yl)-3-pyridyl]-1H-pyrrolo[3,2-c]pyridin-2-yl]methyl]morpholine] | 29 | 100
CN1CCN(c2ccc(-c3nccc4[nH]c(CN5CCC(F)CC5)cc34)cc2)CC1 [Example A25, 2-[(4-fluoro-1-piperidyl)methyl]-4-[4-(4-methylpiperazin-1-yl)phenyl] - 1H-pyrrolo[3,2-c]pyridine] | 100 | 100
Cc1cc2[nH]c(CCN3CCOCC3)cc2c(-c2ccc(N3CCN(C(C)C)CC3)cc2)n1 [Example B3, 4-[2-[4-[4-(4-isopropylpiperazin-1-yl)phenyl]-6-methyl-1H-pyrrolo[3,2-c]pyridin-2-yl]ethyl]morpholine] | 100 | 100
CCN1CCN(c2ccc(-c3nc(C)c(C)c4[nH]c(CCN5CCOCC5)cc34)cc2)CC1 [Example B8, 4-[2-[4-[4-(4-ethylpiperazin-1-yl)phenyl]-6,7-dimethyl-1H-pyrrolo[3,2-c]pyridin-2-yl]ethyl]morpholine] | 93 | –
Cc1cc2[nH]c(CCCN3CCCCC3)cc2c(-c2ccc(N3CCN(C(C)C)CC3)cc2)n1 [Example C5, 4-[4-(4-isopropylpiperazin-1-yl)phenyl]-6-methyl-2-[3-(1-piperidyl)propyl]-1H-pyrrolo[3,2-c]pyridine] | 100 | 94
Cc1cc2[nH]c(CCN3CCCCC3)cc2c(-c2ccc(N3CCN(C(C)C)CC3)cc2)n1 [Example B5, 4-[4-(4-isopropylpiperazin-1-yl)phenyl]-6-methyl-2-[2-(1-piperidyl)ethyl]-1H-pyrrolo[3,2-c]pyridine] | 100 | –
Cc1cc2[nH]c(CCN3CCOCC3)cc2c(-c2ccc(N3CCN(C)CC3)cc2)n1 [Example B4, 4-[2-[6-methyl-4-[4-(4-methylpiperazin-1-yl)phenyl]-1H-pyrrolo[3,2-c]pyridin-2-yl]ethyl]morpholine] | 100 | –
CC(C)N1CCN(c2ccc(-c3nccc4[nH]c(CN5CCC6(CC5)CC(O)C6)cc34)cc2)CC1 [Example A13, 7-[[4-[4-(4-isopropylpiperazin-1-yl)phenyl]-1H-pyrrolo[3,2-c]pyridin-2-yl]methyl]-7-azaspiro[3.5] nonan-2-ol] | 91 | 100
c1cc2[nH]c(CN3CCOCC3)cc2c(-c2ccc(N3CCNCC3)cc2)n1 [Example A42, 4-[[4-(4-(piperazin-1-yl)phenyl)-1H-pyrrolo[3,2-c]pyridin-2-yl]methyl] morpholine] | 41 | 84
CN1CCC(Oc2ccc(-c3nccc4[nH]c(CN5CCOCC5)cc34)cc2)CC1 [Example A62, 4-[[4-[4-[(1-methyl-4-piperidyl)oxy]phenyl]-1H-pyrrolo[3,2-c]pyridin-2-yl]methyl]morpholine] | 79 | –
CC(C)N1CCN(c2ccc(-c3nccc4[nH]c(CN5CCOCC5)cc34)cn2)CC1 [Example A53, 4-[[4-[6-(4-isopropylpiperazin-1-yl)-3-pyridyl]-1H-pyrrolo[3,2-c]pyridin-2-yl]methyl]morpholine] | 80 | 100
